# Source: paper PMC12430544 (Molecules, 2025)
# Assays:
# [1] = molecular target: T1, acetylcholinesterase (AChE, from an electric eel) (Electrophorus electricus, UniProt O42275); assay: biochemical; details: for IC50: electric eel AChE, Ellman's method, pH 7.4, means ± SEM of at least three experiments, read-out: IC50 AChE Inhibition; for Selectivity Index = IC50 (AChE)/IC50 (BuChE): ratio of eeAChE and equine BuChE IC50
# T1 construct: purchased Sigma-Aldrich
# Procedure: (§1) Cholinesterase (ChE) inhibitory activity was evaluated using a modified Ellman’s spectrophotometric method. Acetylcholinesterase (AChE, from electric eel), butyrylcholinesterase (BuChE, from equine serum), 5,5′-dithiobis-(2-nitrobenzoic acid) (Ellman’s reagent, DTNB), S-butyrylthiocholine iodide (BTCI), acetylthiocholine iodide (ATCI), and tarcine hydrochloride were purchased from Sigma-Aldrich. Tarcine hydrochloride was used as a reference standard. All the assays were carried out in 0.1 M KH2PO4/K2HPO4 buffer (pH = 7.4). Stock solutions of tested compounds (10 mM) were prepared in DMSO (below 0.5%, v/v) and diluted in phosphate buffer. The assay was performed in 96-well plate by adding 25 μL of 1 mM acetylthiocholine iodide or butyrylthiocholine iodide used as substrate in the assay, 125 μL of 1 mM 5,5′-dithiobis-(2-nitrobenzoic acid) (DTNB), 25 μL of 0.1 M phosphate buffer (pH = 7.4), 25 μL of testing substance in various concentrations, and 50 μL of 0.2 Units/mL AChE from an electric eel or BuChE from equine serum, respectively. At least five concentrations of the test compounds were assayed. […] The enzyme activity and the percentage inhibition were determined.
# [2] = molecular target: T2, butyrylcholinesterase (BuChE, from horse serum) (Equus caballus, UniProt P81908); assay: biochemical; details: equine serum BuChE, Ellman's method, pH 7.4; means ± SEM of at least three experiments; read-out: IC50 BuChE Inhibition
# T2 construct: purchased Sigma-Aldrich
# Procedure: as §1
# [3] = Metal chelation by UV–vis spectrometry, stoichiometry and affinity estimate (Zn); type: physicochemical; details: CH3OH/H2O (v/v = 9/1), 2L+M⇔ML2
# Text: (§2) Given the 8-hydroxy(amino)quinoline moiety with the properties to bind metal ions, the abilities of all the compounds in binding metal ions (Cu^II, Fe^III, Zn^II) were studied by UV–vis spectrometry. At first three compounds were chose to test the binding abilities. Upon the addition of CuCl2 or ZnSO4 the maximum absorption suffered a bathochromic shift, pointing out the formation of complex compound–Cu^II. […] […].
# (§3) To determine the stoichiometry of the complex compound–Cu^II, the technique of continuous variations (also called Job’s method) was used by preparing solutions of compounds 15a, 17b and CuSO4 so that the sum of concentrations of both species was constant at […] in all samples, but the proportions of both components varied between 0 and 100%. The UV spectra were recorded and the absorbance change at the maximum absorption wavelength of the compound-Cu^II complex, meaning the 15a-Cu^II complex at 264 nm and the 17b-Cu^II at 265 nm, respectively. The absorbance change was plotted versus the mole fraction of the compound, giving two straight lines whose equations were calculated. […] […].
# (§4) Since all the ligands studied L from ML2 species and in accordance with the Beer–Lambert law, complexation reactions can be summarized as 2L+M⇔ML2 with K = 1−α/4C^2α^3 , and α can be calculated from the data of the absorption.
# (§5) Metal-chelating properties were evaluated by UV–vis spectrometry. To screen the ability of chelating metal ions, the same concentrations of compound and metal ion were mixed in CH3OH/H2O (v/v = 9/1), and the UV–vis spectrum was tested; compared to the compound, the maximum absorption that suffered a bathochromic shift would point out the formation of a complex compound–metal ion. The stoichiometry of the complex compound–metal ion was determined by Job’s method. The affinity of compounds 15–17 as ligands (excepted 15f, 16d, 16g, 16k) for Cu^II or Zn^II were estimated in the CH3OH/H2O solution (v/v = 9/1). Since all the ligands studied L from ML2 species and in accordance with the Beer–Lambert law, complexation reactions can be summarized as 2L+M⇔ML2 with K = 1−α/4C^2α^3 , and α = A/Amax; A was the data of absorption tested when the compound–metal ion = 2/1 under the maximum absorption wavelength of the complex, Amax was the absorption when the compound completely formed a complex with the metal ion; the data can be obtained as an approximation when the metal ion is in excess, and the absorption changes little as the concentration of metal ion still increases.
# [4] = Metal chelation by UV–vis spectrometry, Job's method and affinity estimate (Cu); type: physicochemical; details: CH3OH/H2O (v/v = 9/1), UV–vis, 2L+M⇔ML2
# Text: as §2, §3, §4, §5
# Aβ1–42 = molecular target: T3, Aβ1–42 (Homo sapiens, UniProt P05067); assay: Inhibition of self-induced Aβ1–42 aggregation (ThT fluorescence); type: biochemical; details: 20 μM compound, thioflavin-T fluorescence, mean ± SD of at least three independent experiments; read-out: Aβ Aggregation Inhibition (%), self-induced Aβ1–42
# T3 construct: aggregation of Aβ1–42 synthetic peptide into fibrils
# Procedure: Self-induced Aβ1–42 aggregation of all the compounds we obtained was also evaluated. […] ThT is a histochemical dye that is known to bind to the peptide β-sheet conformation, which is the predominant secondary structure of amyloid-beta fibrils. […] The inhibition studies were carried out upon incubating Aβ1–42 with and without the compounds.
# Aβ1–42 was dissolved in 100% 1,1,1,3,3,3-[…] (HFIP) to a concentration of 1 mg/mL, sonicated in a water bath overnight, aliquoted into microcentrifuge tubes, dried under vacuum, and stored at −20 °C. Immediately prior to use, the HFIP-treated Aβ1–42 was dissolved in dimethylsulfoxide (DMSO) as the stored solution. […] Amounts of 5 μL of compound (200 μM) and 5 μL of 200 μM Aβ1–42 were added into 40 μL of phosphate-buffered saline (PBS at pH 7.4). After incubation at room temperature on a thermostatic shaker for 72 h, 100 μL of 5 μM ThT solution (in PBS at pH 7.4) was added to the reaction solution. […] The Aβ1–42 aggregation inhibition percentage was calculated using the following formula: inhibition percentage = (F1 − F2)/(F1 − F0) × 100%.
# T1 sequence (O42275 24-633): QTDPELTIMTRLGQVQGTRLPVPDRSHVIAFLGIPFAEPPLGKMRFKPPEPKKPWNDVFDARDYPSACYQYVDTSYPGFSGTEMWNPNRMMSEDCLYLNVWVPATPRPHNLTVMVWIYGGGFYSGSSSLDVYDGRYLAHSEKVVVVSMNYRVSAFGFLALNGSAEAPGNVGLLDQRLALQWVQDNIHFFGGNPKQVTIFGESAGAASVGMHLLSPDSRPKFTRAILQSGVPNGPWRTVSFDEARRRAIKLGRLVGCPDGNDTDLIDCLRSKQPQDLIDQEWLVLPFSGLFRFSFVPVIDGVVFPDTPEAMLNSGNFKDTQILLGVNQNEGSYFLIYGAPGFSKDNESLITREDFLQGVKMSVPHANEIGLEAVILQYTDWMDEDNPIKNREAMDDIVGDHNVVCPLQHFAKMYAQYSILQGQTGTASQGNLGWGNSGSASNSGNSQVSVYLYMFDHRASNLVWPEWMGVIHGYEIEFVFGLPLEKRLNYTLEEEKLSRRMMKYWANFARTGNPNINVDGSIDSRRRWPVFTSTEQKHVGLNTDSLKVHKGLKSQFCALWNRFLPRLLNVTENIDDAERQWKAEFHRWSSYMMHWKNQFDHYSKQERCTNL
# T3 sequence (P05067 672-713): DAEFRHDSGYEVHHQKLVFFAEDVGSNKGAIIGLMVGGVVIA
# T2 sequence (P81908 whole entry): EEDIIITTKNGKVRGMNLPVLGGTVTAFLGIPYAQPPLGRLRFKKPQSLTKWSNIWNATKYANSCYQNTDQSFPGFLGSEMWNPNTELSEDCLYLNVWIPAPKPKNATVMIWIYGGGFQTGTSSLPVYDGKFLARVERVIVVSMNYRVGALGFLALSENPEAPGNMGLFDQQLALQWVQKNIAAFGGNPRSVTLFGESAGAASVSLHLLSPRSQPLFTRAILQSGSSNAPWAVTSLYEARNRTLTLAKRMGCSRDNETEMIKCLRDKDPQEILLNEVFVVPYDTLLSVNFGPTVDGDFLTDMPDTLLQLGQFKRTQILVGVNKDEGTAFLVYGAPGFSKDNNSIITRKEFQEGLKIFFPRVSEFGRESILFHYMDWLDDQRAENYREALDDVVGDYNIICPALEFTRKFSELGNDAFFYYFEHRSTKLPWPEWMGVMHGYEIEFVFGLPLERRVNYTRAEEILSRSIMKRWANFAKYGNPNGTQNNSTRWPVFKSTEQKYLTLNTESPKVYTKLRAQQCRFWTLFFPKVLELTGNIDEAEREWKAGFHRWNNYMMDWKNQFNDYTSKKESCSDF
Structure (SMILES),IC50 [1],Selectivity Index = IC50 (AChE)/IC50 (BuChE) [1],IC50 [2],"LogK Zn (affinity of ligand for Zn^II, ML2) [3]","LogK Cu (affinity of ligand for Cu^II, ML2) [4]",inhibition at 20 µM (Aβ1–42)
"O=C(CN1CCN(Cc2ccc3c(Cl)ccc(O)c3n2)CC1)Nc1c2c(nc3ccccc13)CCCC2 [Compound 15b, 2-(4-((5-Chloro-8-hydroxyquinolin-2-yl)methyl)piperazin-1-yl)-N-(1,2,3,4-tetrahydroacridin-9-yl)acetamide]",2180 ± 170 nM,0.19,11500 ± 1560 nM,11.34,10.09,–
"O=C(CN1CCN(Cc2ccc3c(Cl)cc(Cl)c(O)c3n2)CC1)Nc1c2c(nc3ccccc13)CCCC2 [Compound 15e, 2-(4-((5,7-Dichloro-8-hydroxyquinolin-2-yl)methyl)piperazin-1-yl)-N-(1,2,3,4-tetrahydroacridin-9-yl)acetamide]",5730 ± 170 nM,1.04,5530 ± 270 nM,9.65,9.59,55.9 ± 2.5%
"Nc1cccc2ccc(CN3CCN(CC(=O)Nc4c5c(nc6ccccc46)CCCC5)CC3)nc12 [Compound 15f, 2-(4-((8-Aminoquinolin-2-yl)methyl)piperazin-1-yl)-N-(1,2,3,4-tetrahydroacridin-9-yl)acetamide]",1240 ± 210 nM,0.16,7850 ± 710 nM,–,–,22 ± 1.8%
"Oc1cccc2ccc(CN3CCN(CCNc4c5c(nc6ccccc46)CCCC5)CC3)nc12 [Compound 16a, 2-((4-(2-((1,2,3,4-Tetrahydroacridin-9-yl)amino)ethyl)piperazin-1-yl)methyl)quinolin-8-ol]",440 ± 6 nM,1.63,270 ± 4 nM,9.48,9.63,77 ± 4.3%
"Oc1ccc(F)c2ccc(CN3CCN(CCNc4c5c(nc6ccccc46)CCCC5)CC3)nc12 [Compound 16b, 5-Fluoro-2-((4-(2-((1,2,3,4-tetrahydroacridin-9-yl)amino)ethyl)piperazin-1-yl)methyl)quinolin-8-ol]",190 ± 5 nM,0.95,200 ± 3 nM,9.63,9.99,22.9 ± 2.4%
"Oc1c(Cl)cc(Cl)c2ccc(CN3CCN(CCNc4c5c(nc6ccccc46)CCCC5)CC3)nc12 [Compound 16c, 5,7-Dichloro-2-((4-(2-((1,2,3,4-tetrahydroacridin-9-yl)amino)ethyl)piperazin-1-yl)methyl)quinolin-8-ol]",2680 ± 300 nM,0.79,3410 ± 6 nM,9.28,9.75,92.5 ± 3.3%
"Nc1cccc2ccc(CN3CCN(CCNc4c5c(nc6ccccc46)CCCC5)CC3)nc12 [Compound 16d, N-(2-(4-((8-aminoquinolin-2-yl)methyl)piperazin-1-yl)ethyl)-1,2,3,4-tetrahydroacridin-9-amine]",180 ± 4 nM,0.86,210 ± 3 nM,–,–,84.7 ± 3.6%
"Oc1ccc(F)c2ccc(CN3CCN(CCCNc4c5c(nc6ccccc46)CCCC5)CC3)nc12 [Compound 16f, 5-Fluoro-2-((4-(3-((1,2,3,4-tetrahydroacridin-9-yl)amino)propyl)piperazin-1-yl)methyl)quinolin-8-ol]",87 ± 2 nM,3.11,28 ± 2 nM,9.45,9.62,54.4 ± 2.9%
"Oc1cccc2ccc(CN3CCN(CCCCCNc4c5c(nc6ccccc46)CCCC5)CC3)nc12 [Compound 16h, 2-((4-(5-((1,2,3,4-Tetrahydroacridin-9-yl)amino)pentyl)piperazin-1-yl)methyl)quinolin-8-ol]",210 ± 3 nM,2.10,100 ± 10 nM,9.63,9.87,93.2 ± 3.9%
"Oc1ccc(F)c2ccc(CN3CCN(CCCCCNc4c5c(nc6ccccc46)CCCC5)CC3)nc12 [Compound 16i, 5-Fluoro-2-((4-(5-((1,2,3,4-tetrahydroacridin-9-yl)amino)pentyl)piperazin-1-yl)methyl)quinolin-8-ol]",400 ± 6 nM,3.33,120 ± 20 nM,9.49,9.49,55.6 ± 5.3%
"Oc1ccc(Cl)c2ccc(CN3CCN(CCCCCNc4c5c(nc6ccccc46)CCCC5)CC3)nc12 [Compound 16j, 5-Chloro-2-((4-(5-((1,2,3,4-tetrahydroacridin-9-yl)amino)pentyl)piperazin-1-yl)methyl)quinolin-8-ol]",130 ± 20 nM,2.89,45 ± 11 nM,9.65,9.96,74.8 ± 4.7%
"Nc1cccc2ccc(CN3CCN(CCCCCNc4c5c(nc6ccccc46)CCCC5)CC3)nc12 [Compound 16k, N-(5-(4-((8-aminoquinolin-2-yl)methyl)piperazin-1-yl)pentyl)-1,2,3,4-tetrahydroacridin-9-amine]",210 ± 3 nM,3.89,54 ± 4 nM,–,–,86.7 ± 3.8%
"O=C(CN1CCN(Cc2ccc(O)c3ncccc23)CC1)Nc1c2c(nc3ccccc13)CCCC2 [Compound 17a, 2-(4-((8-Hydroxyquinolin-5-yl)methyl)piperazin-1-yl)-N-(1,2,3,4-tetrahydroacridin-9-yl)acetamide]",4460 ± 330 nM,1.08,4130 ± 100 nM,9.67,9.50,24.6 ± 3.7%
"COc1cc(/C=C/C(=O)CC(=O)/C=C/c2ccc(O)c(OC)c2)ccc1O [curcumin, reference compound]",–,–,–,–,–,58.3 ± 2.5%
